From US9605025B2, “Antagonist peptide of the bond between CD47 and a protein belonging to the thrombospondin family” (Universite de Reims Champagne Ardenne, priority 2011, dated 2017)

Columns and labels:
[1] = system: B16-F1 mouse melanoma; assay: B16-F1 mouse melanoma model in syngeneic C57Bl/6 mice; assay type: in vivo
Method: FIG. 6 is a photo illustration showing the action of the cyclized antagonist peptide on mouse melanoma cells. After a subcutaneous injection of 250,000 B16-F1 mouse melanoma cells into syngeneic C57Bl/6 mice, intraperitoneal administrations of 10 mg/kg of the antagonist were given on days 3, 5 and 7. The mice were then sacrificed and the tumors photographed on day 20.
FIG. 7 is a photo illustration corresponding to an MRI analysis of an untreated tumor (on the left) and a tumor treated with the cyclized peptide of interest on day 12. An arrow points to the necrotic area.
was also tested directly in vivo on a B16-F1 mouse melanoma model injected into syngeneic C57Bl/6 mice.
FIG. 7 allows a comparison, thanks to a magnetic resonance imaging (RMI) analysis, of the tumor taken from the animal not treated with the tumor taken from the animal treated with the cyclized peptide by means of a disulfide bridge on day 12 after the injection of the tumor cells.

[2] = biological target: T1, TSP1/CD47 complexes (Homo sapiens, UniProt P07996); assay: immunoprecipitation of TSP1/CD47 complexes with anti-CD47 antibody and Western Blot in MDA-MB-231 cells; assay type: cell-based; details: MDA-MB-231 breast cancer cells, 100 μM peptide
T1 construct: endogenous in cells; host or cells: MDA-MB-231 breast cancer cells
T1 sequence (P07996 19-1170, one chain of several): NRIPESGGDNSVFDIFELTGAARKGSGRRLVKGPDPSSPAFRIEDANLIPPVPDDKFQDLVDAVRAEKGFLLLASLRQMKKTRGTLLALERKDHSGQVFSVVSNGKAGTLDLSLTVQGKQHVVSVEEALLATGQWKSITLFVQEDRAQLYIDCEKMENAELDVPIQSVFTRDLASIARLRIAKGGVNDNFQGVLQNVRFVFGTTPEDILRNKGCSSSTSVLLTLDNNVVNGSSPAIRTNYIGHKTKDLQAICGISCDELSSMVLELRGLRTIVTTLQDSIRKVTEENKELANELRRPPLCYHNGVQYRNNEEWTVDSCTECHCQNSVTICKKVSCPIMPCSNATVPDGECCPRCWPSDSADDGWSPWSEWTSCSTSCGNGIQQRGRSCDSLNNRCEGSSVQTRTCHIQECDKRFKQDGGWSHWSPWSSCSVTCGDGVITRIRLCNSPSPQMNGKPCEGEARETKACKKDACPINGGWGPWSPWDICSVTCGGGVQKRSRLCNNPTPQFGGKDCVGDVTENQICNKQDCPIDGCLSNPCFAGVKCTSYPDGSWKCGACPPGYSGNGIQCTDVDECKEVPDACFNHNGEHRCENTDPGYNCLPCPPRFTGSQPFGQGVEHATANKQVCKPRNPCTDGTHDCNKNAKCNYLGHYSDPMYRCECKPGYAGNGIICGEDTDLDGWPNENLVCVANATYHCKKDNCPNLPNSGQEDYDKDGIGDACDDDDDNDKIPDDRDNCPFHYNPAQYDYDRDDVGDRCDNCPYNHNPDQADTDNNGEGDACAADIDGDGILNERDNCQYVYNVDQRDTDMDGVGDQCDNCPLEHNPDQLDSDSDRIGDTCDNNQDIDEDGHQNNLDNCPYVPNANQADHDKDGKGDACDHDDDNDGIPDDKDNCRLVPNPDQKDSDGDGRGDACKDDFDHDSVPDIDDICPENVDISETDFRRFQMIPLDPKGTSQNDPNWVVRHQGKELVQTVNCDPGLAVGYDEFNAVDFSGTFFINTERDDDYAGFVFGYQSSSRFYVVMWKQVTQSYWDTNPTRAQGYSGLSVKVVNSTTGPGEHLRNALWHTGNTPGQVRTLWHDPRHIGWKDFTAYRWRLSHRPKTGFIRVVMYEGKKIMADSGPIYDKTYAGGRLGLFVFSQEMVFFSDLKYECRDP
Method: FIG. 5 is a photo illustration showing the inhibition of the biomolecular interaction between the TSP1 and the CD47 receptor of the MDA-MB-231 breast cancer cells. The cells are incubated for 2 hours with […] 100 μM of the antagonist peptide according to the invention. The TSP1/CD47 complexes are then immunoprecipitated using an anti-CD47 antibody, then the presence of TSP1 and CD47 is analyzed using the Western Blot technique.
Thus, MDA-MB-231 cells corresponding to cells from a breast cancer were incubated for 24 hours with or without the dodecapeptide according to this invention. In particular, the peptide used was the one with sequence:
Immunoprecipitation of the complexes, with an antibody directed against the CD47, then an analysis of the TSP1 and CD47 proteins by the Western Blot method were then done.

[3] = system: thyroid carcinoma cells (FTC-133); assay: viability of FTC-133 thyroid carcinoma cells treated with camptothecin or doxorubicin; assay type: cell-based, human; details: FTC-133, 5 μM camptothecin or doxorubicin; for viability of the tumor cells: 100 μM peptide
Method: FIG. 2 is a graph illustration showing the role of the peptide 4N1 (KRFYVVMWK (SEQ ID NO: 5), derived from the C-terminal domain of TSP1, and the CD47 receptor on the regulation of apoptosis induced by camptothecin (Cpt) or doxorubicin (Dox). To achieve this, thyroid carcinoma cells (FTC-133) were incubated with 5 μM of one or other of the drugs and 100 μM of test peptide 4N1 with or without B6H12 antibody (100 μg/mL) blocking the CD47 receptor. The same experiment was performed with a control peptide 4NGG (KRFYGGMWK SEQ ID NO:6), which is incapable of binding the CD47.
The inventors therefore sought to understand the role of the peptide 4N1 and the CD47 receptor in the inhibition of the apoptosis of cancer cells, and in particular the FTC-133 cells of human thyroid carcinoma (Rath et al., 2006).

[4] = system: follicular thyroid carcinoma cells; assay: caspase-3 activity (marker of apoptosis) in follicular thyroid carcinoma cells treated with camptothecin or doxorubicin; assay type: cell-based, human; details: in the presence of doxorubicin or camptothecin, with vs without TSP1
Method: FIG. 1 is a graph illustration showing the caspase-3 activity, a marker of apoptosis, obtained by measuring the quantity of para-nitroaniline released per hour per μg of protein (y-axis). The caspase-3 activity is measured on follicular thyroid carcinoma cells in the presence of an anticancer molecule inducing apoptosis, camptothecin (Cpt) or doxorubicin (Dox) in the presence or absence of TSP1.
The latter therefore reduces the rate of apoptosis of the thyroid carcinoma cells subjected to an anti-cancer therapy.

Q: CEVSQLLKGDAC [SEQ ID NO: 2] was tested. Which “mice showing a large necrotic area located in the tumor” value ([1]; 10 mg/kg intraperitoneal on days 3, 5 and 7, tumors on day 20) did it give?
A: 4/8

Q: And the “necrotic area in the tumor by MRI analysis” value ([1]; day 12 after the injection of the tumor cells)?
A: has a necrotic area

Q: What about the “TSP1 detected by Western Blot after immunoprecipitation with anti-CD47 antibody (TSP1/CD47 interaction)” value [2] of the same substance?
A: prevents the molecular interaction between the TSP1 protein and the CD47 receptor

Q: “IEVSQLLKGDAS (Antagonist peptide of the bond between a receptor CD47 and a protein belonging to the thrombospondin family) [SEQ ID NO: 1]” was tested. Which “TSP1 detected by Western Blot after immunoprecipitation with anti-CD47 antibody (TSP1/CD47 interaction)” value [2] did it give?
A: TSP1 is no longer detected

Q: For KRFYGGMWK [4NGG], which “viability of the tumor cells” value [3] is on record?
A: does not have any effect

Q: With KRFYVVMWK [4N1] as the substance, how does the “viability of the tumor cells” value [3] read?
A: viability of the tumor cells is greater

Q: What about the “protection of the tumor cells against the anti-cancer drugs” value ([3]; 100 μM peptide plus B6H12 antibody (100 μg/mL) blocking CD47) of the same substance?
A: no longer protects the tumor cells

Q: With “TSP1: thrombospondin-1, extracellular matrix glycoprotein binding the CD47 receptor” as the substance, how does the “caspase-3 activity (para-nitroaniline released per hour per μg of protein)” value [4] read?
A: inhibited considerably
